# Test results from patent US9618513B2, “Compositions and methods for detecting and treating colorectal cancer” (The Regents of the University of Michigan, priority 2014, dated 2017).
# Entries after “also recorded” stand apart in the source; their conditions may differ.
# Experiments:
# [1] = test system: STAT3; assay: STAT phosphorylation by western blotting; type: cell-based, human; conditions: colon cancer cells treated with IL-22
# Protocol: (§1) (A) IL-22 induced STAT3 phosphorylation. Colon cancer cells were treated with IL-22 for different time points. The protein levels of phosphorylated STAT3 and STAT3 were detected by Western blotting. (B, C) IL-22 induced colon cancer spheres via STAT3. Sphere assay was performed with shSTAT3 colon cancer cells in the presence of IL-22. Results were shown as sphere images (b) and the mean numbers of spheres in triplicate (c). (n=5. P<0.01). (D-F) IL-22 stimulated colon cancer sternness gene expression via STAT3. Colon cancer cells expressing shSTAT3 or scrambled vector were cultured with IL-22. Stem cell core gene mRNAs were detected by real-time PCR after 6 hours (n=5, *P<0.05). (G, H) IL-22 causes STAT3 occupancy on SOX2 promoter areas. STAT3-ChIP assay was performed in DLD-1 cells cultured with or without IL-22. One of at least three experiments is shown.
# A. The protein level of phosphorylated STAT3, STAT1 and STATS were activated by IL-22. B. The effect of STAT3 knock down. C. The effect of IL-22 on cell proliferation was analyzed using H^3 Thymidine Incorporation in Stat3 knock down cells. D. Knock down of STAT3 reduced the expression of EZH2 and SUZ12. E. Based on the ENCODE STAT3-ChIP-Seq data base, STAT3 occupancy on the promoter areas of SUZ12 and EED is shown. F. SUZ12/EED DNA was detected by ChIP assay using an antibody against STAT3, c-fos was used as a positive control. […]
# [2] = test system: STAT3 occupancy on gene promoters; assay: STAT3-ChIP assay; type: cell-based, human
# Protocol: as §1
# (A-C)IL-22 increases STAT3 occupancy on the DOT1L (A), AFF4 (B), and MLLT3 (C) proximal promoter. STAT3-ChIP assay was performed in DLD-1 colon cancer cells cultured with or without IL-22. One of three experiments is shown. (D-F) STAT3 knock down reduces H3K79me2 occupancy at proximal promoters of core stem cell genes. H3K79me2-ChIP was performed in colon cancer cells cultured with IL-22 for 24 hours. One of three experiments is shown.
# A. The protein level of phosphorylated STAT3, STAT1 and STATS were activated by IL-22. B. The effect of STAT3 knock down. C. The effect of IL-22 on cell proliferation was analyzed using H^3 Thymidine Incorporation in Stat3 knock down cells. D. Knock down of STAT3 reduced the expression of EZH2 and SUZ12. E. Based on the ENCODE STAT3-ChIP-Seq data base, STAT3 occupancy on the promoter areas of SUZ12 and EED is shown. F. SUZ12/EED DNA was detected by ChIP assay using an antibody against STAT3, c-fos was used as a positive control.
# ChIP assay was performed according to the protocol with exceptions stated below (Upstate, Millipore; http://www. (followed by) millipore.com/techpublications/tech1/mcproto407). Crosslinking was performed with 1% formaldehyde or 1% paraformaldehyde for 10 minutes. […]
substance,measurement,setting,value
"IL-22: recombinant IL-22 (R&D systems), cytokine interleukin-22",STAT3 activation (phosphorylation),[1],activated; also recorded: activated STAT3 strongly
same,recruitment of STAT3 to the SUZ12 and EED promoter,[2]; ChIP realtime PCR,significantly increased
same,STAT3 binding on the SOX2 promoter area,[2]; DLD-1 with or without IL-22,increased
same,"STAT3 binding to the DOT1L, AFF4 and MLLT3 promoter",[2]; DLD-1 with or without IL-22,increased
